What was measured:
[1] = molecular target: T1, GLP-1 receptor (Homo sapiens, UniProt P43220); assay: Agonist activity against GLP-1 receptor, CRE-luciferase reporter (ONE-Glo) in CHO-K1/CRE-luc/GLP-1 receptor cells; type: cell-based; conditions: 6 h incubation, luciferase readout
T1 construct: expressed in transfected cells
Excerpt: This experiment was intended to test the agonist activity of the compound molecules against the GLP-1 receptor and evaluate the in vitro activity of the molecules according to EC50. The experiment adopted a ONE-Glo™ Luciferase Assay System (Promega, E6110). Under the action of compound molecules, GLP-1R downstream signaling pathways were activated to cause elevated cAMP level. The combination of cAMP and CRE could start the transcription expression of CRE downstream luciferase genes, the luciferase could emit fluorescence when reacting with substrates thereof, and the activity of the compound for agonizing GLP-1 receptors was reflected by measuring fluorescence signals through a ONE-Glo™ reagent.
Stably-expressed CHO-K1/CRE-luc/GLP-1 receptor cell strains (self-construction of GLP-1 receptor plasmid; CRE-luc plasmid Promega E8471) was constructed. CHO-K1/CRE-luc/GLP-1 receptor cells were digested, and resuspended after centrifugation. Single cell suspension was uniformly mixed, and adjusted to a viable cell density of 2.5×10^5 cell/mL with a cell culture medium (DME/F-12+10% FBS), and the resulting solution was added to a 96-well cell culture plate at 90 μL/well (Corning, #3903). The plate was incubated in an incubator for 16 h (37° C., 5% CO2).
The compound was dissolved in DMSO to prepare a stock solution with an initial concentration of 20 mM. The starting concentration of the small molecule compound was 0.2 mM, and the compound underwent 3-fold serial dilution for a total of 10 concentration points, with DMSO at the 11th point. To another 96-well plate was added 95 μL of cell culture medium (DME/F-12+10% FBS), 5 μL of test samples with different concentrations were added to each well, followed by uniform mixing, and then 10 μL of test samples with different concentrations were added to each well, with two duplicate wells set for each sample. The plate was incubated in an incubator for 6 h (37° C., 5% CO2). The 96-well cell culture plate was taken out, and 100 μL of ONE-Glo™ reagent was added to each well, followed by incubation at room temperature for 10 min. The plate was placed in a microplate reader (EnVision 2105, PE) for determination of chemiluminescence.
Data were processed and analyzed using Microsoft Excel and Graphpad Prism 5.

[2] = molecular target: T2, hERG potassium ion channel (Homo sapiens, UniProt Q12809); assay: Blocking effect on hERG potassium currents, automated patch clamp in HEK293-hERG cells; type: cell-based; conditions: automated patch clamp (Patchliner)
T2 construct: expressed in transfected cells
Procedure: The blocking effect of hERG potassium currents by the compounds of the present disclosure was tested in a stable cell strain transfected with an hERG potassium channel using an automated patch clamp.
HEK293 cell lines were transfected with pCDNA3.1(+) from which the hERG gene had been constructed, and then stably-expressed monoclonal HEK293-hERG cell strains were selected by addition of G418. Stably-expressed HEK293-hERG cell strains were subcultured at a density of 1:4 in an MEM/EBSS medium (10% FBS, […] G418, 1% MEM non-essential amino acid solution (100×), 1% sodium pyruvate solution) and subjected to an automated patch clamp experiment within 48-72 h after the start of the culture. On the day of experiment, the cells were digested with […] pancreatin (life technologies, 12563-029), collected by centrifugation and resuspended in an extracellular fluid (140 mM NaCl, 4 mM KCl, 1 mM MgCl2, 2 mM CaCl2, 5 mMD glucose monohydrate, 10 mM HEPES, pH 7.4, 298 mOsmol) to prepare a cell suspension. The cell suspension was placed on the cell bank of the Patchliner instrument that transferred the cells to the chip (NPC-16) using a negative pressure controller. […] The currents at various concentrations of the compound and in the blank control were analyzed by data analysis software provided by HEAK EPC10 patch clamp amplifier (Nanion) and Pathlinersoftware and Pathcontrol HTsoftware. […]

T1 sequence (P43220 24-463): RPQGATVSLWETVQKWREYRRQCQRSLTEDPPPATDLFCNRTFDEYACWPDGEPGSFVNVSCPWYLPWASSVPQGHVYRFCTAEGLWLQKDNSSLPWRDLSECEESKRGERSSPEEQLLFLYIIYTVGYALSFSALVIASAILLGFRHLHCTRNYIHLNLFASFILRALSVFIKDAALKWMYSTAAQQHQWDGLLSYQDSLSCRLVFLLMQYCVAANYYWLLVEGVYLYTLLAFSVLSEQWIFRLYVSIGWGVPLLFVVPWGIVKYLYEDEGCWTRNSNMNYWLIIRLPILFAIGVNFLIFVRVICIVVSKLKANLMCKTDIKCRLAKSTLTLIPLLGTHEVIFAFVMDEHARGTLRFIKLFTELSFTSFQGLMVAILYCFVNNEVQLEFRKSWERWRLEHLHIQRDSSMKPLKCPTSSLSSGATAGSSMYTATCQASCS
T2 sequence (Q12809 whole entry): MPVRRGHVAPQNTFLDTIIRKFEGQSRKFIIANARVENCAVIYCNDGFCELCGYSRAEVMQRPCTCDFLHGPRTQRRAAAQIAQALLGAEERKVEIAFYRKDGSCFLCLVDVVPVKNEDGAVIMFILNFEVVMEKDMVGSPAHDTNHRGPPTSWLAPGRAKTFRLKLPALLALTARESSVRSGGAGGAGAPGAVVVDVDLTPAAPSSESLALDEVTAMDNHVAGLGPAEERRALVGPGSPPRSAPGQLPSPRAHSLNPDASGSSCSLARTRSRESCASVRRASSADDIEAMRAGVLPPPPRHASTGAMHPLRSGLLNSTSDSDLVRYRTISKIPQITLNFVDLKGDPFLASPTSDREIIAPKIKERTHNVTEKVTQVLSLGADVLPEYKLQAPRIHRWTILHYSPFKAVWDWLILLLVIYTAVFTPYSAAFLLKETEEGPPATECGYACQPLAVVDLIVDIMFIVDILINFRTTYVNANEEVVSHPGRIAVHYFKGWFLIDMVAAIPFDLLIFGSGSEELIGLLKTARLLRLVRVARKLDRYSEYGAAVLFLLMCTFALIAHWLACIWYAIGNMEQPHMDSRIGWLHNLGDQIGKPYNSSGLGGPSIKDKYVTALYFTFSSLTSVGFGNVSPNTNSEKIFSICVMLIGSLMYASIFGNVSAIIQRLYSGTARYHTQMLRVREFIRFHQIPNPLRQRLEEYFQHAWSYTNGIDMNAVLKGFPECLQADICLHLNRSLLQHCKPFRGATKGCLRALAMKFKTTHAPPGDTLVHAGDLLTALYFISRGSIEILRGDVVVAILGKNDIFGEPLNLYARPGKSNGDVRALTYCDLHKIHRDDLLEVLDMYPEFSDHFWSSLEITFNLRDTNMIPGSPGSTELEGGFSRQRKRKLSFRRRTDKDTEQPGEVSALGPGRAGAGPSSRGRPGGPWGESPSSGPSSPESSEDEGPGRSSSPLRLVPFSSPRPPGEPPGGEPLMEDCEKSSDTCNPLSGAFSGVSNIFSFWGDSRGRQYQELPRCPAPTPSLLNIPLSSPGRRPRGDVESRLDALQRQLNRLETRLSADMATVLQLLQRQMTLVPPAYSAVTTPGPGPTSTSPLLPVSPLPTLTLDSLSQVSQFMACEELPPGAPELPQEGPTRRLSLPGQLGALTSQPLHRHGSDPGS

Row | EC50 [1] [nM] | Emax [1] [%] | Structure (SMILES) | IC50 [2] [nM]
1 | 0.12 | 104 | C[C@]1(c2ccc(Cl)cc2F)Oc2cccc(C3=CCN(Cc4nc5ccc(C(=O)O)cc5n4C[C@@H]4CCO4)CC3)c2O1 [Example 4, 2-((4-((S)-2-(4-chloro-2-fluorophenyl)-2-methylbenzo[d][1,3]dioxol-4-yl)-3,6-dihydropyridin-1(2H)-yl)methyl)-1-(((S)-oxetan-2-yl)methyl)-1H-benzo[d]imidazole-6-carboxylic acid] | 22000
2 | 0.85 | 108 | N#Cc1ccc(CSc2nc(C3=CCN(Cc4nc5ccc(C(=O)O)cc5n4C[C@@H]4CCO4)CC3)ccc2F)c(F)c1 [Example 6, (S)-2-((6-(4-cyano-2-fluorobenzyl)thio-5-fluoro-3′,6′-dihydro-[2,4′-bipyridin]-1′(2′H)-yl)methyl)-1-(oxetan-2-ylmethyl)-1H-benzo[d]imidazole-6-carboxylic acid] | 
3 | 1.93 | 110 | N#Cc1ccc(CSc2cccc(C3=CCN(Cc4nc5ccc(C(=O)O)cc5n4C[C@@H]4CCO4)CC3)n2)c(F)c1 [Example 5, (S)-2-((6-(4-cyano-2-fluorobenzyl)thio-3′,6′-dihydro-[2,4′-bipyridin]-1′(2′H)-yl)methyl)-1-(oxetan-2-ylmethyl)-1H-benzo[d]imidazole-6-carboxylic acid] | 
4 | 0.45 | 107 | C[C@]1(c2ccc(Cl)cc2F)Oc2cccc(C3=CCN(Cc4nc5ccc(C(=O)O)nc5n4C[C@@H]4CCO4)CC3)c2O1 [Example 7, 2-((4-((S)-2-(4-chloro-2-fluorophenyl)-2-methylbenzo[d][1,3]dioxol-4-yl)-3,6-dihydropyridin-1(2H)-yl)methyl)-3-(((S)-oxetan-2-yl)methyl)-3H-imidazo[4,5-b]pyridine-5-carboxylic acid] | 
5 | 0.92 | 110 | CC1(c2ccc(Cl)cc2F)Oc2cccc(C3=CCN(Cc4nc5ccc(C(=O)O)cc5n4C[C@@H]4CCO4)CC3)c2O1 (stereo partly drawn) [Example 2, 2-((4-(2-(4-chloro-2-fluorophenyl)-2-methylbenzo[d][1,3]dioxol-4-yl)-3,6-dihydropyridin-1(2H)-yl)methyl)-1-(((S)-oxetan-2-yl)methyl)-1H-benzo[d]imidazole-6-carboxylic acid] | 
6 | 0.12 | 110 | N#Cc1ccc(COc2cccc(C3=CCN(Cc4nc5ccc(C(=O)O)cc5n4C[C@@H]4CCO4)CC3)n2)c(F)c1 [Example 1] | 
7 | 1.38 | 106 | CC(Oc1cccc(C2=CCN(Cc3nc4ccc(C(=O)O)cc4n3C[C@@H]3CCO3)CC2)n1)c1ccc(Cl)cc1F (stereo partly drawn) [Example 3] | 

— patent US12590081B2, “Fused imidazole derivatives, preparation method and medicinal use thereof” (Jiangsu Hengrui Pharmaceuticals Co., Ltd., priority 2020, dated 2026)
